Source: patent US20120053144A1, “Cobalamin Taxane Bioconjugates For Treating Eye Disease” (Osiris Therapeutics, Inc., priority 2009, published 2012)

Test system: choroidal neovascularization
Test: Choroidal neovascularization model (argon laser scarring, fluorescein leakage scoring)
Type: in vivo, rats
Conditions: rat eye, laser-induced, treated on day 0
Method: Groups of rats were neovascularized by argon laser scarring on an eye. At the same time (day 0), the eye was immediately treated with the cobalamin-paclitaxel bioconjugate (CT-101) prepared in accordance with Example 1. Two concentrations, one higher and one lower, were tested. The treatment regimen also included a vehicle and KENACORT® RETARD (4% triamcinolone acetonide), as a positive control. The treated eyes were evaluated for inhibition of neovascularization on days 7, 14 and 21 by infusing the eye with fluorescein and scoring the leakage from each spot. The leakage of fluorescein on the photographies of the angiograms from each spot were evaluated by two examiners using an HRA (Heidelberg's Retinal Angiograph) in a masked fashion and graded as follows:
Score 1: slightly stained;
Score 2: moderate stained;
Score 3: strongly stained.

Substance: B12-5′-OCONH(CH2)5CO-Phe-Lys-PABC-7-Taxol [CT-101]
- inhibition of neovascularization (fluorescein leakage score) (Day 14, both concentrations (higher and lower)): measurable effect
- inhibition of neovascularization (fluorescein leakage score) (effect over 7 days relative to vehicle and positive control): marked angiogenic effect relative to the vehicle over 7 days, and was comparable in effect to the positive control
